# Test results taken from patent US10351559B2, “Maleate salts of a B-RAF kinase inhibitor, crystalline forms, methods of preparation, and uses therefore” (BeiGene, Ltd., priority 2015, dated 2019).
# Legend:
# [1] = short-term stability study (1 week, 60° C. and 40° C./75% RH); type: physicochemical
# Experimental: Weighed about 2 mg (For XRPD: 10 mg) of each of the above salts in a 40 mL glass vial, separately. The free base form was used as control. The closed samples were capped and sealed with parafilm, while the opened samples were covered by aluminum foil with pinhole. All the samples were stored in stability chamber or dry oven at the corresponding conditions (60° C. and 40° C./75% RH) for 1 week.
# [2] = pharmacokinetic comparison of sesqui-maleate and free base, oral; type: in vivo, Beagle dogs; conditions: dogs, oral dose 1 mg/kg (free base); listed as Free Base (Lyophilized Amorphous Form), 1 mg/kg
# From the text: Drugs and reagents: Crystalline Form A* of Compound 1 Sesqui-Maleate with particle sizes of D90=4.1 um, D10=1.5 um, D50=2.4 um after micronization. The material content (purity) was not less than 98.0%.
# Experiment animals: Beagle dogs, male and female.
# Pharmaceutical preparation: Weigh the appropriate amount of each substance and disperse in 0.5% sodium carboxymethyl cellulose (for the free base of Compound 1) or 0.5% methyl cellulose solution (for Compound 1 Sesqui-Maleate). Prepare a suspension at the desired concentration of Compound 1. All the doses and concentrations of Compound 1 were calculated with free base in this study.
# Administration and sample collection: The dosing solutions will be freshly prepared prior to dose administration. The actual body weights and actual volume injected will be recorded accordingly. The dogs were fasted overnight and were allowed to intake food four hours after dosing. Each suspension was administrated orally to dogs at a dose ranged from 0.5 to 15 mg/kg. Blood samples (˜1.0 mL) will be collected at pre-dose and at different times up to 36 hours postdosing via cephalic vein plexus. Whole blood will be processed by centrifugation and plasma samples will be collected and kept at freezer prior to analysis. Plasma samples were processed by protein precipitation. Concentrations of Compound 1 in the plasma samples were determined using a validated liquid chromatography-tandem mass spectrometry (LC-MS/MS) method. The plasma concentration-time data were analyzed using a non-compartmental model using Pharsight WinNonlin.
# tissue distribution = type: in vivo; conditions: various tissues, brain
# [3] = tested on: BRAF V600E and KRAS cancers; assay: Phase I clinical study; type: in vivo, human
# aqueous solubility study = type: physicochemical; conditions: listed as free base of Compound 1
# [4] = hygroscopicity (moisture sorption) by DVS; type: physicochemical; conditions: from 0 to 80% RH
# From the text: The free base of Compound 1 was obtained originally as an amorphous solid, which is slightly hygroscopic with 2.2% water gain from 0 to 80% RH. No form transformation was observed after dynamic vapor sorption (DVS).
# CYP3A = assay: CYP isoforms responsible for metabolism; type: in vitro ADME
# [5] = 16 KRAS cancer patients treated
TRS % ([1]; 0 day) [%],"TRS % ([1]; 40° C./75% RH, 1 week) [%]","TRS % ([1]; 60° C., 1 week) [%]",chemical degradation ([1]; after one week at 60° C. and 40° C./75% RH),appearance by visual observation ([1]; both conditions after 1 week),Compound,"TRS % ([1]; 0 day, listed as API free base) [%]","TRS % ([1]; 40° C./75% RH, 1 week, listed as API free base) [%]","TRS % ([1]; 60° C., 1 week, listed as API free base) [%]",Cmax [2] [ng/mL],Dose-Normalized AUC0-inf [2] [ng·kg·h/mL/mg],tissue distribution (tissue distribution),"number of PR [3, 5] [PR]","patients survived more than 2.2 months [3, 5]",clinical response ([3]; BRAF V600E CRC patients),clinical response ([3]; BRAF V600E PTC patients),clinical response ([3]; BRAF V600E melanoma patients),solubility in water (aqueous solubility study),"aqueous solubility (aqueous solubility study; water, LOQ at 0.001 mg/mL) [µg/mL]",water (weight) gain [4],CYP isoform responsible for metabolism (CYP3A)
–,–,–,–,–,"O=C1CCc2c(Oc3ccc4c(c3)[C@@H]3[C@H](O4)[C@H]3c3nc4ccc(C(F)(F)F)cc4[nH]3)ccnc2N1 [Compound 1, 5-(((1R,1aS,6bR)-1-(6-(trifluoromethyl)-1H-benzo[d]imidazol-2-yl)-1a,6b-dihydro-1H-cyclopropa[b]benzofuran-5-yl)oxy)-3,4-dihydro-1,8-naphthyridin-2(1H)-one]",0.12,0.11,0.12,257,1512,"widely distributed to various tissues, but was low in brain tissue",3,at least 12 patients,some anti-tumor activities,partial responses,partial responses,substantially insoluble in water,< 1,2.2%,CYP3A was the major CYP isoform
0.08,0.51,1.16,showed degradations,no change,2-hydroxyethanesulfonate,–,–,–,–,–,–,–,–,–,–,–,–,–,around 4%,–
